Laboratory results published in the supplement of paper PMC10331698.
± gives the standard deviation of the averaged measurements.

Tests used:
Test in all cases: level (log10 ratio to DMSO vehicle control); higher = higher biomarker level / cell amount than vehicle control
[1] = compound: FC(F)(I)C(F)(F)C(F)(F)C(F)(F)C(F)(F)C(F)(F)I [1,6-Diiodoperfluorohexane]; settings: 6700 nM; in DMSO
Protocol: (§1)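 BioMAP Diversity Plus panel of 12 human primary cell co-culture systems (3C, 4H, LPS, SAg, BT, BF4T, BE3C, CASM3C, HDF3CGF, KF3CT, MyoF, Mphg). Compounds were added 1 h before stimulation and left for 24 h (MyoF 48 h; BT 72 h for soluble read-outs or 6 d for IgG). Biomarkers were read by ELISA, cytotoxicity by SRB, PBMC viability and proliferation by Alamar Blue. Each well value was divided by the mean of 8 DMSO control wells on the same plate and log10 transformed; duplicate blinded samples were tested at 4 concentrations.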

[2] = compound: OCCCC(F)(F)C(F)(F)C(F)(F)C(F)(F)C(F)(F)C(F)(F)C(F)(F)C(F)(F)F [3-(Perfluorooctyl)propanol]; settings: 6700 nM; in DMSO
Protocol: as §1

[3] = compound: OCCCCC(F)(F)C(F)(F)C(F)(F)C(F)(F)F [4:4 Fluorotelomer alcohol]; settings: in DMSO
Protocol: as §1

[4] = compound: OCC(F)(F)C(F)(F)C(F)(F)C(F)(F)C(F)(F)C(F)(F)C(F)(F)C(F)(F)C(F)(F)C(F)(F)C(F)(F)F [11:1 Fluorotelomer alcohol]; settings: in DMSO
Protocol: as §1

[5] = compound: O=C(Cl)C(F)(F)C(F)(F)C(F)(F)C(=O)Cl [Hexafluoroglutaryl chloride]; settings: in DMSO
Protocol: as §1

[6] = compound: O=C(CC(=O)C(F)(F)C(F)(F)C(F)(F)F)c1cccs1 [(Perfluorobutyryl)-2-thenoylmethane]; settings: in DMSO
Protocol: as §1

Tetrafluorosuccinic acid = compound: O=C(O)C(F)(F)C(F)(F)C(=O)O [Tetrafluorosuccinic acid]; settings: in DMSO
Protocol: as §1

[7] = compound: C=CC(=O)OCC(F)(F)C(F)(F)C(F)(F)C(F)(F)COC(=O)C=C [1H,1H,6H,6H-Perfluorohexane-1,6-diol diacrylate]; settings: 6700 nM; in DMSO
Protocol: as §1

Perfluorooctanoic acid = compound: O=C(O)C(F)(F)C(F)(F)C(F)(F)C(F)(F)C(F)(F)C(F)(F)C(F)(F)F [Perfluorooctanoic acid]; settings: in DMSO
Protocol: as §1

Test System | level (log10) [1] | level (log10) [2] | level (log10) ([3]; 6700 nM) | level (log10) ([3]; 20000 nM) | level (log10) ([3]; 60000 nM) | level (log10) ([4]; 1100 nM) | level (log10) ([4]; 3300 nM) | level (log10) ([4]; 10000 nM) | level (log10) ([5]; 6700 nM) | level (log10) ([5]; 20000 nM) | level (log10) ([5]; 60000 nM) | level (log10) ([6]; 6700 nM) | level (log10) ([6]; 20000 nM) | level (log10) (Tetrafluorosuccinic acid; 6700 nM) | level (log10) (Tetrafluorosuccinic acid; 20000 nM) | level (log10) (Tetrafluorosuccinic acid; 60000 nM) | level (log10) [7] | level (log10) (Perfluorooctanoic acid; 6700 nM) | level (log10) (Perfluorooctanoic acid; 20000 nM) | level (log10) (Perfluorooctanoic acid; 60000 nM)
BE3C:PAI-I | 0.015 | -0.008 ± 0.0014 | -0.026 ± 0.02 | -0.002 ± 0.031 | 0.011 | -0.045 ± 0.057 | -0.0855 ± 0.054 | -0.0555 ± 0.07 | -0.0285 ± 0.053 | -0.0715 ± 0.059 | -0.0935 ± 0.094 | -0.127 ± 0.023 | -0.363 ± 0.035 | -0.011 ± 0.0071 | 0.002 ± 0.018 | -0.001 ± 0.023 | 0.0495 ± 0.025 | 0.001 ± 0.0042 | 0.0395 ± 0.013 | 0.041 ± 0.0028
MyoF:bFGF | -0.127 | -0.034 ± 0.017 | 0.0035 ± 0.0035 | -0.009 ± 0.021 | 0.005 ± 0.042 | 0.002 ± 0.0071 | 0.008 ± 0.014 | 0.004 ± 0.021 | 0.0045 ± 0.0035 | -0.0035 ± 0.0078 | 0.0135 ± 0.0035 | 0.002 ± 0.0028 | -0.0175 ± 0.00071 | 0.0005 ± 0.0021 | 0.0095 ± 0.0078 | -0.0045 ± 0.029 | 0.0155 ± 0.0064 | -0.023 ± 0.0057 | -0.0275 ± 0.0035 | -0.0085 ± 0.03
HDF3CGF:TIMP-1 | -0.077 | -0.105 ± 0.052 | -0.006 ± 0.017 | -0.001 ± 0.034 | 0.02 ± 0.057 | -0.029 ± 0.024 | -0.07 ± 0.0085 | -0.033 ± 0.016 | 0.002 ± 0.014 | 0.012 ± 0.025 | 0.0395 ± 0.05 | 0.069 ± 0.025 | 0.0215 ± 0.011 | -0.05 ± 0.023 | -0.017 ± 0.0042 | -0.0155 ± 0.035 | -0.203 ± 0.0021 | -0.015 ± 0.034 | -0.029 ± 0.0099 | 0.0155 ± 0.00071
CASM3C:Serum Amyloid A | -0.008 | -0.005 ± 0.024 | -0.0055 ± 0.025 | -0.01 ± 0.047 | 0.0295 ± 0.063 | -0.0025 ± 0.044 | -0.0045 ± 0.0078 | 0.0045 ± 0.016 | -0.022 ± 0.038 | -0.008 ± 0.0042 | -0.002 ± 0.0014 | 0.0285 ± 0.013 | -0.038 ± 0.013 | 0.011 ± 0.011 | 0.017 ± 0.018 | 0.025 ± 0.037 | -0.0575 ± 0.0078 | -0.002 ± 0.013 | 0.006 ± 0.051 | 0.022 ± 0.038
lMphg:CXCL8/IL-8 | 0.018 | 0.0655 ± 0.015 | -0.04 ± 0.035 | -0.0355 ± 0.029 | 0.022 ± 0.021 | 0.111 ± 0.042 | 0.127 ± 0.033 | 0.0445 ± 0.0064 | 0.023 ± 0.011 | 0.027 ± 0.018 | 0.0625 ± 0.05 | -0.022 ± 0.027 | 0.048 ± 0.011 | -0.0205 ± 0.0064 | -0.025 ± 0.021 | -0.0175 ± 0.023 | 0.0035 ± 0.0092 | 0.009 ± 0.021 | 0.073 ± 0.048 | 0.175 ± 0.054
lMphg:CD62E/E-Selectin | 0.033 | -0.0425 ± 0.066 | -0.0275 ± 0.018 | -0.012 ± 0.018 | -0.0195 ± 0.04 | 0.0715 ± 0.011 | 0.084 ± 0.024 | 0.118 ± 0.012 | -0.0295 ± 0.016 | 0.0025 ± 0.018 | -0.0365 ± 0.022 | -0.0485 ± 0.054 | -0.123 ± 0.034 | -0.0075 ± 0.032 | 0.0085 ± 0.011 | 0.032 ± 0.013 | -0.044 ± 0.021 | -0.007 ± 0.025 | 0.013 | 0.052 ± 0.017
MyoF:MMP-1 | 0.469 | 0.0315 ± 0.011 | 0.002 ± 0.0057 | 0.007 ± 0.023 | 0.032 ± 0.076 | -0.027 ± 0.0042 | -0.0445 ± 0.0021 | 0.004 ± 0.052 | -0.043 ± 0.05 | -0.026 ± 0.054 | -0.0195 ± 0.018 | -0.0565 ± 0.052 | -0.0005 ± 0.018 | -0.006 ± 0.023 | 0.0025 ± 0.0021 | 0.0535 ± 0.059 | 0.231 ± 0.023 | -0.032 | -0.018 ± 0.038 | 0.043 ± 0.086
